Test results as given in patent US11161876B2, “Anti-inflammatory nanofibers” (Northwestern University, priority 2015, dated 2021).
Entries after “also recorded” stand apart in the source; their conditions may differ. * marks the point of attachment. C16 alkyl = CCCCCCCCCCCCCCCC*

Tests used:
[1] = test system: Rat Bladder Augmentation Model; experiment: Bladder stone formation in regenerating bladders; assay type: in vivo; conditions: for Bladder Stone Formation (shown as percentage of animals forming stones): 5 weeks post-augmentation; for size of bladder stones formed, in words: rat, in vivo
Description: Bladder stone formation can be caused by a myriad of factors including those based upon diet as well as genetic makeup and underlying bladder conditions (refs. 57,58; herein incorporated by reference in its entirety).
(§1) Athymic female rats (weighing ˜200 g and 8-10 weeks old; National Cancer Institute Animal Production Program) underwent bladder augmentation (ref. 15; herein incorporated by reference in its entirety). Athymic rats were chosen for this study to solely examine the innate immune response to inflammation without influence of the adaptive immune response. In order to induce anesthesia, animals were given intraperitoneal injections of 60 mg/kg ketamine and 5 mg/kg xylazine. A second injection consisting of Buprenex (1 mg/kg) was administered subcutaneously to alleviate any pain/discomfort during and following surgical procedures. An approximate 1.5 cm midline vertical skin incision was created to expose the abdominal fascia and muscles. This was immediately followed by the separation of the wall leading to the identification of the bladder. An approximate 70% supratrigonal cystectomy was performed from anterior to posterior creating a clamshell. Immediately prior to bladder augmentation procedures, samples of the pro-inflammatory biological scaffold, small intestinal submucosa (SIS (0.5×0.5 cm); Cook Biotech.) (refs. 12,13,16; herein incorporated by reference in their entireties) were thoroughly dip-coated separately in one of the previously described AIF-PAs following gelation procedures. The sections of SIS were dip-coated for approximately 20 seconds and allowed to adhere to the SIS for an additional 30 seconds. Dip-coating procedures were performed at room temperature in air. The cystectomized bladder defect was then augmented with: 1) SIS (non-AIF-PA coated SIS; n=8 animals over both time-points); 2) AIF-PA1 coated SIS (denoted as SIS/AIF-PA1; n=11 animals over both time-points); 3) AIF-PA2 coated SIS (denoted as SIS/AIF-PA2; n=8 animals over both time-points); 4) AIF-PA3 coated SIS (denoted as SIS/AIF-PA3; n=3); 5) AIF-PA4 coated SIS (denoted as SIS/AIF-PA4; n=3 animals); 6) AIF-PA5 coated SIS (denoted as SIS/AIF-PA5; n=3 animals); and 7) AIFC-PA6 coated SIS (denoted as SIS/AIFC-PA6; n=9 animals over both time-points). The bladder was finally covered with omentum after being closed in a watertight manner utilizing 7-0 polyglactin suture. The abdominal wall was then closed in a single layer with 5-0 ethibond running suture and the skin re-approximated with 9 mm autoclips. Each group was sacrificed at 10 day and 5 week time-points.

TNFα = TNFα expression in regenerated bladder tissue (immunofluorescence); assay type: in vivo, rat; conditions: for Cytokine expression (shown as percentage of cells staining positive) Pro-inflammatory TNFα: 5 weeks post-augmentation, means ± SE; for percentage of cells staining positive for TNFα: 10 days post-augmentation
Experimental: as §1
(§2) Tissue sections comprised of SIS alone, SIS/AIF-PA1, SIS/AIF-PA2, and SIS/AIF-PA6 augmentations were subjected to immunofluorescence staining by initially undergoing antigen retrieval which consisted of 15 min of boiling in citrate buffer (0.01M citrate solution, pH 6.0 with 0.05% Tween-20) followed by cooling at room temperature for approximately 20 minutes. The antibody staining process consisted of a blocking step for 15 min in bovine serum albumin (BSA, 5 mg/ml) followed by a 40 minutes incubation at room temperature with the primary antibody. After washing with DPBS, slides were incubated for 30 min with a secondary antibody and eventually rinsed with DPBS and air dried. Slides were mounted with Vectashield (Vector Laboratories). Primary antibodies were directed against epitopes for the inflammatory markers CD68 (macrophage) (refs. 18,19; herein incorporated by reference in their entireties) MPO (neutrophil) (ref. 20; herein incorporated by reference in its entirety) or the inflammation-related proteins IL1β, TNFα, IL-10, IL-13, CD206 (M2 macrophage) (refs. 21-25; herein incorporated by reference in their entireties) and CD86 (M1 macrophage) (ref. 26; herein incorporated by reference in its entirety). Antibodies directed against the ECM in regenerating bladder tissue (including COL4A3 and fibronectin) were also utilized. Alexa Red 555 or FITC conjugated secondary antibodies (Molecular Probes) were utilized for visualization (ref. 15; herein incorporated by reference in its entirety). […]

[2] = test system: Rat Bladder Augmentation Model; experiment: Urodynamic testing (UDS) of augmented bladders; assay type: in vivo; conditions: for intravesical pressure during voiding: post-augmentation
Experimental: as §1
The bladders of anesthetized athymic rats were exposed through the abdomen as previously described. A 20 gauge cannula (Becton Dickinson and Co.) was delicately placed into the bladder through the dome in order to obtain intravesical measurements. The cannula was connected to the Pump 11 Elite Syringe Pump (Harvard Apparatus) and to a physiological pressure transducer (SP844, MEMSCAP). The pressure transducer was connected to a bridge amplifier (Model FE221; AD Instruments). Continuous reading of the transvesical pressure was measured and plotted using LabChart 7.3 software (AD Instruments). The fill rate for each study ranged from 150-200 uL per minute. Bladder capacity was measured by a modified protocol (ref. 13; herein incorporated by reference in its entirety). Sterile DPBS was injected into the bladder using a 27 gauge needle in 50 μl increments until fluid leakage was observed from the urethra of the animal. The total volume injected was then noted. This procedure was repeated at least three times per animal. Urine was evacuated from the bladder prior to the start of any bladder capacity measurements utilizing a sterile 27 gauge needle. Urodynamic and bladder capacity measurements were performed immediately prior to augmentation procedures and immediately prior to euthanization.
Bladders underwent urodynamic testing (UDS) pre- and post-augmentation. Bladders were gradually filled with sterile saline until a bladder contraction occurred. Bladder pressures rose during the filling until bladder contractions occurred at intravesical pressures of 30-40 cm H2O (FIG. 5, panels A, C, E, and G). […]

MPO+ neutrophils = experiment: Immunofluorescence quantification of MPO+ neutrophils in regenerated bladder tissue; assay type: in vivo, rat
Experimental: as §1, §2

IL-1β = IL-1β expression in regenerated bladder tissue (immunofluorescence); assay type: in vivo, rat; conditions: for Cytokine expression (shown as percentage of cells staining positive) Pro-inflammatory IL-1β: 5 weeks post-augmentation, means ± SE; for percentage of cells staining positive for IL-1β: 10 days post-augmentation
Experimental: as §1, §2

CD86+ M1 macrophages = experiment: M1 macrophage subtype (CD86) distribution in regenerating bladder tissue; assay type: in vivo, rat; conditions: for M1 macrophage levels, in words: 10 days to 5 weeks
Experimental: as §1, §2

CD206+ M2 macrophages = experiment: M2 macrophage subtype (CD206) distribution in regenerating bladder tissue; assay type: in vivo, rat; conditions: for M2 macrophage levels, in words: 10 days to 5 weeks
Experimental: as §1, §2

[3] = post-augmentation vs pre-augmentation

| Substance | Bladder Stone Formation (shown as percentage of animals forming stones) [1] [percentage] | size of bladder stones formed, in words [1] | Cytokine expression (shown as percentage of cells staining positive) Pro-inflammatory TNFα (TNFα) [percentage] | percentage of cells staining positive for TNFα (TNFα) [%] | intravesical pressure during voiding [2] | intravesical / voiding pressures, in words [2, 3] | percentage of cells positive for MPO (MPO+ neutrophils; 5 weeks post-augmentation) [%] | percentage of cells positive for MPO (MPO+ neutrophils; 10 days post-augmentation) [%] | Cytokine expression (shown as percentage of cells staining positive) Pro-inflammatory IL-1β (IL-1β) [percentage] | percentage of cells staining positive for IL-1β (IL-1β) [%] | number of M1 macrophages (CD86+ M1 macrophages; 5W post-augmentation) [cells/mm^2] | M1 macrophage levels, in words (CD86+ M1 macrophages) | number of M2 macrophages (CD206+ M2 macrophages; 5W post-augmentation) [cells/mm^2] | M2 macrophage levels, in words (CD206+ M2 macrophages) | number of M1 macrophages (CD86+ M1 macrophages; 10D post-augmentation) [cells/mm^2] | number of M2 macrophages (CD206+ M2 macrophages; 10D post-augmentation) [cells/mm^2] | bladder compliance, in words [2, 3] |
| --- | --- | --- | --- | --- | --- | --- | --- | --- | --- | --- | --- | --- | --- | --- | --- | --- | --- |
| C16-VVVAAAEEEHDMNKVLDL (SEQ ID NO:2) ({C16 alkyl}-VVVAAAEEEHDMNKVLDL-NH2) [SIS/AIF-PA2, anti-inflammatory peptide amphiphile, tested dip-coated on small intestinal submucosa (SIS) scaffold] | 16.7 | a fraction of the size found in control animals | 14.6 ± 1.7 | 26.3±2.5 | approximately 35 cm H2O | very modest decrease in bladder intravesical pressure | 7.2±1.1 | 9.0±0.5 | 11.5 ± 2.7 | 21.2±2.4 | 389.4±62.6 | Comparatively low numbers | 224.7±39.0 | Comparatively low numbers | – | – | – |
| C16-VVVAAAEEEKLMSQKMVD (SEQ ID NO:6) ({C16 alkyl}-VVVAAAEEEKLMSQKMVD-NH2) [SIS/AIFC-PA6, reference compound] | 42.9 | quite large in size | 42.8 ± 2.2 | 65.1±5.1 | – | unchanged or even slightly elevated; also recorded: failed to decrease intravesical pressures | 17.6±1.8 | – | 42.9 ± 1.8 | 63.3±2.4 | 957.7±106.2 | – | 539.3±46.7 | – | 986.9±18.1 | 842.5±18.9 | – |
| C16-VVVAAAEEEMQMKKVLDS (SEQ ID NO:1) ({C16 alkyl}-VVVAAAEEEMQMKKVLDS-NH2) [SIS/AIF-PA1, anti-inflammatory peptide amphiphile, tested dip-coated on small intestinal submucosa (SIS) scaffold] | 25.0 | a fraction of the size found in control animals | 17.4 ± 2.9 | 32.8±2.5 | approximately 25 cm H2O | decreased intravesical pressures | 5.2±0.7 | 6.9±0.7 | 12.9 ± 2.0 | 28.2±2.4 | 343.4±45.4 | dropped considerably; also recorded: significant decline over time | 301.7±23.0 | further decreased by 5 weeks | – | – | higher bladder compliance; also recorded: increase in compliance |
